Test [1] in a line: Glycaemia in streptozotocin-induced diabetes model. The format is in vivo, Sprague-Dawley rats. As to conditions: rats injected with STZ; 354±40 mg/kg/day in drinking water, 8 weeks. How it is done: (§1) All experimental studies using animals were approved by an Ethical Committee at the Jagiellonian University. Diabetes model was established by the single, intraperitoneal administration of streptozotocin (STZ, 75 mg/kg in citrate buffer, pH 4.5) to three-month Sprague-Dawley rats. In order to maintain glycaemia between 350 and 450 mg/dL, animals were treated twice a week by insulin (neutral protamine Hagedorn, NPH, 2-3 U/300 g of body weight).
(§2) The rats were divided into three groups (each one of n=4 animals): “control” group—animals injected with citrate buffer only (sham animals), “diabetes” group—STZ treated animals and “STZ+drug” group—STZ-rats treated with examined drug (354±40 mg/kg/day in drinking water). The experiment lasted 8 weeks. Animals were anesthetized and killed, and both the tissue samples (kidneys, heart, lungs, brain) as well as blood samples were harvested. The presence of AGEs was evaluated by immunohistochemistry, with use of specific antibodies (Abcam, USA).

A further test deals with AGEs. Briefly: Immunohistochemistry for AGEs in renal glomeruli, streptozotocin-induced diabetes model. The format is in vivo, Sprague-Dawley rats. The settings on record: STZ rats; 354±40 mg/kg/day in drinking water, 8 weeks; kidney. How it is done: as §1, §2
In test [2] the target is T1, albumin (Homo sapiens, UniProt P02768). The test can be described thus: Measurement of glycation by mass spectrometry (gain of molecular weight of albumin incubated with glucose). The format is biochemical. How it is done:
Glycation of protein in vitro was carried out according to following scheme: • 50 mg of protein (albumin, myoglobin) was dissolved in 1 ml 0.01M PBS (pH 7.4), containing D-glucose (0.1; 0.3; 0.5; 1M) and 5 mM toluene (as a bacteriostatic compound). The examined drug or aminoguanidine hydrochloride were added to samples at final concentrations from 0.1 mM to 5 mM. Samples were incubated at 37° C., in dark, for a specified period of time (1, 2, 3 and 4 weeks). Then, the protein was concentrated by ultrafiltration (30 min at 4000×g, 16° C.) with Amicon 50 cartridges (Millipore) with cut-off of 50 kDa (in case of albumin) or Amicon 10 cartridges with cut-off of 10 kDa (in case of myoglobin). The concentrated protein samples were dialyzed for 24 hrs, against distilled water, using dialysis membranes: Spectra Por (cut-off of 50 kDa for albumin and cut-off of 12-14 kDa for myoglobin). Then the samples were lyophilized overnight. • Control samples were prepared as above except of addition of glucose (control I) or drugs (control II). The method is based on a measurement of protein molecular weight (albumin, myoglobin), which is increased in proportion to the number of bound sugar moieties. […] Based on obtained MS spectra, average protein molecular weight was calculated using BioWorks 1.0 software (Finnigan, San Jose, USA).

In test [3] the target is T1, albumin. The test can be described thus: Measurement of albumin glycation using spectrofluorimetric method (Ex/Em 370/440 nm). The format is biochemical. The settings on record: 5 mM; albumin incubated with glucose 0.5 M for 4 weeks. On the procedure: Glycation of protein in vitro was carried out according to following scheme: • 50 mg of protein (albumin, myoglobin) was dissolved in 1 ml 0.01M PBS (pH 7.4), containing D-glucose (0.1; 0.3; 0.5; 1M) and 5 mM toluene (as a bacteriostatic compound). The examined drug or aminoguanidine hydrochloride were added to samples at final concentrations from 0.1 mM to 5 mM. Samples were incubated at 37° C., in dark, for a specified period of time (1, 2, 3 and 4 weeks). Then, the protein was concentrated by ultrafiltration (30 min at 4000×g, 16° C.) with Amicon 50 cartridges (Millipore) with cut-off of 50 kDa (in case of albumin) or Amicon 10 cartridges with cut-off of 10 kDa (in case of myoglobin). The concentrated protein samples were dialyzed for 24 hrs, against distilled water, using dialysis membranes: Spectra Por (cut-off of 50 kDa for albumin and cut-off of 12-14 kDa for myoglobin). Then the samples were lyophilized overnight. • Control samples were prepared as above except of addition of glucose (control I) or drugs (control II). Sugar residues are characterized by fluorescence—Ex/Em 370/440 nm The action of drug is expressed by a suppression of the intensity of fluorescence. Lyophylized protein samples were dissolved in 0.01M PBS (pH 7.4), at concentration 0.5 mg protein/1 ml of buffer. […] Fluorescence intensity was measured at 440 nm emission upon excitation of 370 nm.

T1 sequence (P02768 25-609, species assumed): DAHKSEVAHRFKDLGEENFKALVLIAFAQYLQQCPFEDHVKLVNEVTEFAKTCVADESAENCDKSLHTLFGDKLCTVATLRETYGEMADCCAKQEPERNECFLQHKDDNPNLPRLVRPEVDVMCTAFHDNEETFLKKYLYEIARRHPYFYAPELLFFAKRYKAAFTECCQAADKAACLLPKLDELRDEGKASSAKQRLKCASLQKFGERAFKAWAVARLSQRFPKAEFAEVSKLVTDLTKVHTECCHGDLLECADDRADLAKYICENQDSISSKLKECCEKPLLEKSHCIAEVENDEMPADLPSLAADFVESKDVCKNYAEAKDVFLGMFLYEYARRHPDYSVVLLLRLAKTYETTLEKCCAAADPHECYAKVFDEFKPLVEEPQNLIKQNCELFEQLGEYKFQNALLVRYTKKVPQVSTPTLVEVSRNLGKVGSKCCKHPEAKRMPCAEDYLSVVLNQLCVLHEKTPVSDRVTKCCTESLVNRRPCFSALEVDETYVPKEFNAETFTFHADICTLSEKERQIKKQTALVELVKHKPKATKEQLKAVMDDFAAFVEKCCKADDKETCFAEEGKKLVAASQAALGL

Regarding `NC(=O)CN1CCCC1=O` [tested compound, 2-(2-oxo-1-pyrrolidin-1-yl) acetamide], in test [1], the glycaemia came to 429 ± 65.0 mg/dL and the influence on glycaemia entry is on record as “did not influence glycaemia”. Moreover, in the test with AGEs, the “number of AGE-positive glomeruli” value is reported as “significantly reduced” and the “severity of changes in glomeruli” value is recorded as “significantly reduced”. Further, the “inhibition of protein glycation (mass spectrometry method)” value at albumin [2] (5 mM, albumin 50 mg/ml, glucose 0.5 M, 4 weeks, compared to mass of albumin incubated with glucose alone) is recorded as 33%. Further, the “addition of glucose moieties to albumin” value on albumin [2] (in vitro model, FIG. 1, strength comparable to aminoguanidine) is “inhibited dose-dependently”. The “inhibition of glycation (spectrofluorimetric method)” value against albumin [3] amounted to 45%.
Turning to `Cl.N=C(N)NN` [aminoguanidine, aminoguanidine hydrochloride], the “inhibition of glycation (spectrofluorimetric method)” value on albumin [3] is recorded as 67%.

The values are drawn from patent US8686037B2, “Use of piracetam for treating diabetic nephropathy” (Uniwersytet Jagiellonski, priority 2009, dated 2014).
